Patent US9826761B2, “Compositions and methods for mitigating dietary sulfur in animals” (SarTec Corporation, priority 2008, dated 2017)

What was measured:
[1] = Titration of approx. 200 mM sulfide in fresh rumen fluid with 1 M metal chloride, silver/sulfide electrode; parameters: species or system Holstein cows; conditions: for mVolts (Negative Value): ~200 mM sulfide, fresh rumen fluid
Description: Fresh undiluted rumen fluid was obtained from rumen fistulated Holstein cows. 1.5 ml of a saturated solution of Na2S in water (approximately 2.7 M) was added to 18.5 ml of the rumen fluid. Sodium sulfide solutions were quantified by titration using a silver/sulfide electrode (Orion, Ion Plus Silver/Sulfide 9616BNWP) and a commercial lead standard (0.1 M Pb^2+, Orion 948206). The final concentration for sulfide ion in the rumen fluid was approximately 200 mM. This solution was then titrated with a 1 M solution of MnCl2 in water. The progress of the reaction was followed using the silver/sulfide electrode.
Fresh undiluted rumen fluid was obtained from rumen fistulated Holstein cows. 1.5 ml of saturated solution of Na2S in water (approximately 2.7 M) was added to 18.5 ml of the rumen fluid. The final concentration of sulfide ion in the rumen fluid was approximately 200 mM. This solution was then titrated with a 1 M solution of FeCl2 in water. The progress of the reaction was followed using the same silver/sulfide electrode set-up described above (Orion, Ion Plus Silver/Sulfide 9616BNWP).
Data taken from Examples 1 and 2 above were plotted together in order to gauge the relative efficacy of MnCl2 versus FeCl2 in removing sulfide ion from rumen fluid.

[2] = Titration of approx. 200 mM sulfide in 24 hour old rumen fluid with 1 M MnCl2, BaCl2 or CaCl2, silver/sulfide electrode; parameters: species or system Holstein cows
Description: 24 hour old undiluted rumen fluid from rumen fistulated Holstein cows was obtained. 4 ml of Na2S in water (approximately 1 M) was added to 16 ml of the rumen fluid. The final concentration of sulfide ion in the rumen fluid was approximately 200 mM. […] The progress of the reaction was followed using the same silver/sulfide electrode set-up described above (Orion, Ion Plus Silver/Sulfide 9616BNWP).

[3] = Effect of MnCl2 supplementation on cattle (feedlot trial); type: in vivo, Angus based feeder calves; conditions: feeder calves, approx. 0.55 g/head/day MnCl2 and 10.0 g/head/day FeCl2 in supplement with Yucca extract
Text: In this example, forty-six Angus based feeder calves were blocked by sex (heifers and steers) and assigned within block to one of two treatments. One group (one pen of steers and one pen of heifers) was fed a commercially available feed additive including Yucca extract ([…] Corporation, Anoka, Minn.) mixed into the feedlot supplement. […] The supplement also contained minerals, vitamins, […]), and carrier feed products including corn, barley sprouts, and distillers grains. […] The results (DMI=dry matter intake, ADG=average daily gain) are shown below in Table 5.

[4] = Precipitating activity: rumen fluid containing manganese compound titrated with 1.0M Na2S, silver/sulfide electrode; parameters: species or system Holstein cows; conditions: for mVolts: 200 mM MnCl2 in rumen fluid
Description: Next, 0.28 g of MnO(II) was placed in a 100 ml beaker and 20 ml of rumen fluid was added. Then 0.17 g of MnO2(IV) was placed in 100 ml beaker and 20 ml of rumen fluid was added. Each of these compositions, in addition to a rumen fluid control, was then titrated with a 1.0M solution of Na2S. The progress of the reaction was followed using the same silver/sulfide electrode set-up described above (Orion, Ion Plus Silver/Sulfide 9616BNWP).

For manganese (II) chloride [MnCl2], the “concentration of sulfide ion within the rumen fluid” value ([1]; addition of 1 M titrant to ~200 mM sulfide in fresh rumen fluid) was “effective to reduce the concentration of sulfide ion”, the “mVolts (Negative Value)” value ([1]; titrant volume 0.0 of 1M MnCl2) was 952.6 mVolts and the “mVolts (Negative Value)” value ([1]; titrant volume 0.3 of 1M MnCl2) was 950.5 mVolts. The “mVolts (Negative Value)” value ([1]; titrant volume 0.5 of 1M MnCl2) was 947.7 mVolts, the “mVolts (Negative Value)” value ([1]; titrant volume 0.7 of 1M MnCl2) was 947.8 mVolts and the “mVolts (Negative Value)” value ([1]; titrant volume 0.9 of 1M MnCl2) was 940.4 mVolts. The “mVolts (Negative Value)” value ([1]; titrant volume 1.1 of 1M MnCl2) was 929.7 mVolts, the “mVolts (Negative Value)” value ([1]; titrant volume 1.4 of 1M MnCl2) was 918.4 mVolts and the “mVolts (Negative Value)” value ([1]; titrant volume 1.6 of 1M MnCl2) was 899.9 mVolts. The “mVolts (Negative Value)” value ([1]; titrant volume 1.8 of 1M MnCl2) was 882.2 mVolts, the “mVolts (Negative Value)” value ([1]; titrant volume 2.0 of 1M MnCl2) was 861.5 mVolts and the “mVolts (Negative Value)” value ([1]; titrant volume 2.3 of 1M MnCl2) was 850.2 mVolts. For the same substance, the “mVolts (Negative Value)” value ([1]; titrant volume 2.5 of 1M MnCl2) was 830.5 mVolts, the “mVolts (Negative Value)” value ([1]; titrant volume 2.7 of 1M MnCl2) was 808.9 mVolts and the “mVolts (Negative Value)” value ([1]; titrant volume 2.9 of 1M MnCl2) was 777.1 mVolts. The “mVolts (Negative Value)” value ([1]; titrant volume 3.2 of 1M MnCl2) was 735.7 mVolts, the “mVolts (Negative Value)” value ([1]; titrant volume 3.4 of 1M MnCl2) was 702.0 mVolts and the “mVolts (Negative Value)” value ([1]; titrant volume 3.6 of 1M MnCl2) was 686.7 mVolts. The “mVolts (Negative Value)” value ([1]; titrant volume 3.9 of 1M MnCl2) was 678.2 mVolts, the “mVolts (Negative Value)” value ([1]; titrant volume 4.1 of 1M MnCl2) was 672.4 mVolts and the “mVolts (Negative Value)” value ([1]; titrant volume 4.3 of 1M MnCl2) was 667.8 mVolts. For the same substance, the “mVolts (Negative Value)” value ([1]; titrant volume 4.5 of 1M MnCl2) was 664.4 mVolts, the “mVolts (Negative Value)” value ([1]; titrant volume 4.7 of 1M MnCl2) was 661.8 mVolts and the “mVolts (Negative Value)” value ([1]; titrant volume 4.9 of 1M MnCl2) was 658.9 mVolts. The “mVolts (Negative Value)” value ([1]; titrant volume 5.2 of 1M MnCl2) was 656.6 mVolts, the “mVolts (Negative Value)” value ([1]; titrant volume 5.4 of 1M MnCl2) was 654.6 mVolts and the “mVolts (Negative Value)” value ([1]; titrant volume 6.0 of 1M MnCl2) was 649.8 mVolts. It also gave a mVolts ([2]; Volume 0.0 of 1.0M MnCl2, ~200 mM sulfide) of 934.0 mVolts, a mVolts ([2]; Volume 0.2 of 1.0M MnCl2, ~200 mM sulfide) of 931.7 mVolts and a mVolts ([2]; Volume 0.4 of 1.0M MnCl2, ~200 mM sulfide) of 931.6 mVolts. For the same substance, the mVolts ([2]; Volume 0.6 of 1.0M MnCl2, ~200 mM sulfide) was 930.7 mVolts, the mVolts ([2]; Volume 0.8 of 1.0M MnCl2, ~200 mM sulfide) was 929.4 mVolts and the mVolts ([2]; Volume 1.0 of 1.0M MnCl2, ~200 mM sulfide) was 926.6 mVolts. The mVolts ([2]; Volume 1.2 of 1.0M MnCl2, ~200 mM sulfide) was 921.4 mVolts, the mVolts ([2]; Volume 1.4 of 1.0M MnCl2, ~200 mM sulfide) was 906.6 mVolts and the mVolts ([2]; Volume 1.7 of 1.0M MnCl2, ~200 mM sulfide) was 903.0 mVolts. It also gave a mVolts ([2]; Volume 1.8 of 1.0M MnCl2, ~200 mM sulfide) of 863.5 mVolts, a mVolts ([2]; Volume 1.9 of 1.0M MnCl2, ~200 mM sulfide) of 855.2 mVolts and a mVolts ([2]; Volume 2.0 of 1.0M MnCl2, ~200 mM sulfide) of 848.1 mVolts. It also gave a mVolts ([2]; Volume 2.1 of 1.0M MnCl2, ~200 mM sulfide) of 841.7 mVolts, a mVolts ([2]; Volume 2.2 of 1.0M MnCl2, ~200 mM sulfide) of 834.5 mVolts and a mVolts ([2]; Volume 2.3 of 1.0M MnCl2, ~200 mM sulfide) of 829.2 mVolts. For the same substance, the mVolts ([2]; Volume 2.4 of 1.0M MnCl2, ~200 mM sulfide) was 823.9 mVolts, the mVolts ([2]; Volume 2.5 of 1.0M MnCl2, ~200 mM sulfide) was 817.9 mVolts and the mVolts ([2]; Volume 2.7 of 1.0M MnCl2, ~200 mM sulfide) was 811.4 mVolts. The mVolts ([2]; Volume 2.8 of 1.0M MnCl2, ~200 mM sulfide) was 804.0 mVolts, the mVolts ([2]; Volume 2.9 of 1.0M MnCl2, ~200 mM sulfide) was 794.9 mVolts and the mVolts ([2]; Volume 3.0 of 1.0M MnCl2, ~200 mM sulfide) was 783.1 mVolts. It also gave a mVolts ([2]; Volume 3.1 of 1.0M MnCl2, ~200 mM sulfide) of 767.9 mVolts, a mVolts ([2]; Volume 3.3 of 1.0M MnCl2, ~200 mM sulfide) of 746.6 mVolts and a mVolts ([2]; Volume 3.4 of 1.0M MnCl2, ~200 mM sulfide) of 733.1 mVolts. For the same substance, the mVolts ([2]; Volume 3.5 of 1.0M MnCl2, ~200 mM sulfide) was 718.3 mVolts, the mVolts ([2]; Volume 3.6 of 1.0M MnCl2, ~200 mM sulfide) was 704.2 mVolts and the mVolts ([2]; Volume 3.7 of 1.0M MnCl2, ~200 mM sulfide) was 694.2 mVolts. For the same substance, the mVolts ([2]; Volume 3.8 of 1.0M MnCl2, ~200 mM sulfide) was 687.0 mVolts, the mVolts ([2]; Volume 3.9 of 1.0M MnCl2, ~200 mM sulfide) was 679.7 mVolts and the mVolts ([2]; Volume 4.0 of 1.0M MnCl2, ~200 mM sulfide) was 674.1 mVolts. It also gave a mVolts ([2]; Volume 4.2 of 1.0M MnCl2, ~200 mM sulfide) of 670.1 mVolts, a mVolts ([2]; Volume 4.4 of 1.0M MnCl2, ~200 mM sulfide) of 665.4 mVolts and a mVolts ([2]; Volume 4.6 of 1.0M MnCl2, ~200 mM sulfide) of 661.8 mVolts. The mVolts ([2]; Volume 5.0 of 1.0M MnCl2, ~200 mM sulfide) was 657.1 mVolts, the “total sulfide ion concentrations in the rumen fluid versus BaCl2 and CaCl2” value ([2]; ~200 mM sulfide) was “substantially lower total sulfide ion concentrations” and the “ADG (average daily gain)” value [3] was 3.58 lb/head/day. The “DMI (dry matter intake)” value [3] was 23.18 lb/head/day, the End wt. [3] was 1147.5 lb and the “Feed Efficiency (DM/gain)” value [3] was 6.48. For the same substance, the mVolts ([4]; Vol 1M Na2S 0.0) was 533.2 mVolts, the mVolts ([4]; Vol 1M Na2S 0.3) was 617.3 mVolts and the mVolts ([4]; Vol 1M Na2S 0.5) was 631.2 mVolts. The mVolts ([4]; Vol 1M Na2S 0.8) was 640.0 mVolts, the mVolts ([4]; Vol 1M Na2S 1.1) was 641.8 mVolts and the mVolts ([4]; Vol 1M Na2S 1.4) was 647.5 mVolts. The mVolts ([4]; Vol 1M Na2S 1.7) was 649.0 mVolts, the mVolts ([4]; Vol 1M Na2S 2.1) was 652.1 mVolts and the mVolts ([4]; Vol 1M Na2S 2.3) was 653.0 mVolts. For the same substance, the mVolts ([4]; Vol 1M Na2S 2.6) was 652.6 mVolts, the mVolts ([4]; Vol 1M Na2S 2.9) was 658.0 mVolts and the mVolts ([4]; Vol 1M Na2S 3.2) was 667.2 mVolts. It also gave a mVolts ([4]; Vol 1M Na2S 3.4) of 678.8 mVolts, a mVolts ([4]; Vol 1M Na2S 3.5) of 691.3 mVolts and a mVolts ([4]; Vol 1M Na2S 3.6) of 710.6 mVolts. It also gave a mVolts ([4]; Vol 1M Na2S 3.8) of 742.0 mVolts, a mVolts ([4]; Vol 1M Na2S 3.9) of 770.9 mVolts and a mVolts ([4]; Vol 1M Na2S 4.0) of 783.4 mVolts. The mVolts ([4]; Vol 1M Na2S 4.1) was 804.1 mVolts, the mVolts ([4]; Vol 1M Na2S 4.2) was 820.2 mVolts and the mVolts ([4]; Vol 1M Na2S 4.3) was 837.8 mVolts. For the same substance, the mVolts ([4]; Vol 1M Na2S 4.4) was 851.7 mVolts, the mVolts ([4]; Vol 1M Na2S 4.5) was 863.4 mVolts and the mVolts ([4]; Vol 1M Na2S 4.7) was 877.0 mVolts. It also gave a mVolts ([4]; Vol 1M Na2S 4.8) of 883.6 mVolts, a mVolts ([4]; Vol 1M Na2S 4.9) of 888.2 mVolts and a mVolts ([4]; Vol 1M Na2S 5.0) of 893.2 mVolts. The “precipitating sulfide ion versus MnO(II) and MnO2(IV)” value ([4]; rumen fluid titrated with 1.0M Na2S) was “much more effective in precipitating sulfide ion”.
